Measurements published in US20220064316A1, “TREATMENT OF CANCER USING HUMANIZED ANTI-BCMA CHIMERIC ANTIGEN RECEPTOR” (The Trustees of the University of Pennsylvania, priority 2014, published 2022).

What was measured:
[1] = system: CAR-expressing, transduced T cells; test: Proliferation of CARTs co-cultured with Nalm-6 cells in presence of RAD001; type: cell-based; details: low doses of RAD001, 4 days of co-culture with Nalm-6 cells
Experimental: CARTs were co-cultured with Nalm-6 cells in the presence of different concentrations of RAD001. The number of CAR-positive CD3-positive T cells (black) and total T cells (gray) was assessed after 4 days of co-culture.

NALM6-luc tumors = test: NALM6-luc tumor growth under daily oral RAD001; type: in vivo, NSG mice; details: daily oral dosing of RAD001 alone
Experimental: NALM6-luc cells: The NALM6 human acute lymphoblastic leukemia (ALL) cell line was developed from the peripheral blood of a patient with relapsed ALL. The cells were then tagged with firefly luciferase. These suspension cells grow in RPMI supplemented with 10% heat inactivated fetal bovine serum.
Mice: 6 week old NSG (NOD.Cg-Prkdc^scidIl2rg^tm1Wjl/SzJ) mice were received from the Jackson Laboratory (stock number 005557).
Tumor implantation: NALM6-luc cells were grown and expanded in vitro in RPMI supplemented with 10% heat inactivated fetal bovine serum. The cells were then transferred to a 15 ml conical tube and washed twice with cold sterile PBS. NALM6-luc cells were then counted and resuspended at a concentration of 10×10^6 cells per milliliter of PBS. The cells were placed on ice and immediately (within one hour) implanted in the mice. NALM6-luc cells were injected intravenously via the tail vein in a 100 µl volume, for a total of 1×10^6 cells per mouse.
(§1) RAD001 dosing: A concentrated micro-emulsion of 50 mg equal to 1 mg RAD001 was formulated and then resuspended in D5W (dextrose 5% in water) at the time of dosing. Mice were orally dosed daily (via oral gavage) with 200 μl of the desired doses of RAD001.

huCAR19 CAR T cells = test: huCAR19 CAR T cell expansion in vivo with RAD001 (FACS); parameters: species or system NSG mice; details: lowest doses of RAD001, daily oral; more evident with CD4+ than CD8+ CAR T cells
Experimental: CAR T cell dosing: Mice were administered 5×10^6 CAR T cells 7 days after tumor implantation. Cells were partially thawed in a 37 degree Celsius water bath and then completely thawed by the addition of 1 ml of cold sterile PBS to the tube containing the cells. The thawed cells were transferred to a 15 ml falcon tube and adjusted to a final volume of 10 mls with PBS. The cells were washed twice at 1000 rpm for 10 minutes each time and then counted on a hemocytometer. T cells were then resuspended at a concentration of 50×10^6 CAR T cells per ml of cold PBS and kept on ice until the mice were dosed. The mice were injected intravenously via the tail vein with 100 μl of the CAR T cells for a dose of 5×10^6 CAR T cells per mouse. Eight mice per group were treated either with 100 μl of PBS alone (PBS), or humanized CD19 CAR T cells.
as §1
Based on these doses, huCAR19 CAR T cells were dosed with and without RAD001 to determine the proliferative ability of these cells. The highest dose used was 3 mg/kg based on the levels of RAD001 in the blood 24 hours after dosing. […] Mice were monitored via FACS for T cell expansion.

[2] = system: huCART19 cells co-cultured with Nalm-6; test: huCART19 proliferation in 4 day co-culture with Nalm-6 in presence of RAD001; type: cell-based, human
From the text: A humanized, anti-human CD19 CAR (huCART19) lentiviral transfer vector was used to produce the genomic material packaged into VSVg pseudotyped lentiviral particles. The amino acid and nucleotide sequence of the humanized anti-human CD19 CAR (huCART19) is CAR 1, ID 104875 described in PCT publication, WO2014/153270, filed Mar. 15, 2014, and is designated SEQ ID NOs. 85 and 31 therein.
Lentiviral transfer vector DNA is mixed with the three packaging components VSVg env, gag/pol and rev in combination with lipofectamine reagent to transfect Lenti-X 293T cells. Medium is changed after 24h and 30h thereafter, the virus-containing media is collected, filtered and stored at −80° C. CARTs are generated by transduction of fresh or frozen naïve T cells obtained by negative magnetic selection of healthy donor blood or leukopak. […] The percentage of cells transduced (expressing the CARs on the cell surface) and the level of CAR expression (relative fluorescence intensity, Geo Mean) are determined by flow cytometric analysis between days 7 and 9. […]
To evaluate the functionality of CARTs, the T cells are thawed and counted, and viability is assessed by Cellometer. […]
For measuring the proliferation of CARTs, T cells are cultured with target cells at a ratio of 1:1. […] The number of T cells is assessed by flow cytometry using counting beads as reference.

[3] = RAD001 PK analysis in blood of NALM6-luc tumor bearing mice; type: in vivo, NSG mice
Experimental: as §1
PK analysis: Mice were dosed daily with RAD001 starting 7 days post tumor implantation. Dosing groups were as follows: 0.3 mg/kg, 1 mg/kg, 3 mg/kg, and 10 mg/kg. Mice were bled on days 0 and 14 following the first and last dose of RAD001, at the following time points for PK analysis: 15 minutes, 30 minutes, 1 hour, 2 hours, 4 hours, 8 hours, 12 hours, and 24 hours.

[4] = system: humanized CD19 CART cells; test: In vivo proliferation of humanized CD19 CART cells with and without RAD001 dosing; details: RAD001 0.003 mg/kg daily, with huCAR19
Experimental: FIGS. 46A and 46B show in vivo proliferation of humanized CD19 CART cells with and without RAD001 dosing. […] Circles denote PBS; squares denote huCTL019; triangles denote huCTL019 with 3 mg/kg RAD001; inverted triangles denote huCTL019 with 0.3 mg/kg RAD001; diamonds denote huCTL019 with 0.03 mg/kg RAD001; and circles denote huCTL019 with 0.003 mg/kg RAD001.

Question: What does the source list for CO[C@H]1C[C@@H]2CC[C@@H](C)[C@@](O)(O2)C(=O)C(=O)N2CCCC[C@H]2C(=O)O[C@H]([C@H](C)C[C@@H]2CC[C@@H](OCCO)[C@H](OC)C2)CC(=O)[C@H](C)/C=C(\C)[C@@H](O)[C@@H](OC)C(=O)[C@H](C)C[C@H](C)/C=C/C=C/C=C/1C [RAD001, (1R,9S,12S,15R,16E,18R,19R,21R,23 S,24E,26E,28E,30S,32S,35R)-1,18-dihydroxy-12-{(1R)-2-[(1S,3R,4R)-4-(2-hydroxyethoxy)-3-methoxycyclohexyl]-1-methylethyl}-19,30-dimethoxy-15,17,21,23,29,35-hexamethyl-11,36-dioxa-4-aza-tricyclo[30.3.1.04,9]hexatriaconta-16,24,26,28-tetraene-2,3,10,14,20-pentaone]?
Answer: proliferation of CAR-expressing, transduced T cells [1]: enhanced; growth of NALM6-luc tumors (NALM6-luc tumors): did not have an impact; proliferation of the CAR T cells in vivo (huCAR19 CAR T cells): enhanced proliferation; huCART19 proliferation versus no RAD001 ([2]; 0.0032 and 0.016 nM RAD001): higher than observed without the addition of RAD001; RAD001 concentration at which huCART19 cells expanded ([2]; 4 day co-culture with Nalm-6, 1:1, lesser extent at higher concentrations): less than 0.016 nM; concentration at 24 h ([3]; NSG, mouse, whole blood, 24 hours after dosing, 0.3 mg/kg oral daily, day 0 and day 14, read-out: RAD001 concentrations in the blood): > 10 nM; stability in the blood ([3]; tumor bearing mice, FIGS. 45A, 45B): fairly stable; CAR T cell proliferation in vivo [4]: enhancement in CAR T cell proliferation
